Like-named read-outs stand apart in the source and are kept apart here.
Legend:
[1] = molecular target: T1, A156T mutant of the HCV NS3/4A 1b protease enzyme (Hepatitis C virus genotype 1b, UniProt P26663, A1182T); assay: HCV Protease FRET Assay (IC50), A156T mutant; assay type: biochemical; settings: read-out: Inhibition, HCV A156T; A156T enzyme, FRET assay
T1 construct: 10× stocks of NS3/4A protease enzyme from Bioenza (Mountain View, Calif.); purchased Bioenza (Mountain View, Calif.)
Protocol: (§1) HCV Protease FRET Assay for Wild Type and Mutated NS3/4A 1b Enzymes (IC50)
The protocol is a modified FRET-based assay (v—02) from In Vitro Resistance Studies of HCV Serine Protease Inhibitors, 2004, JBC, vol. 279, No. 17, pp 17508-17514.
10× stocks of NS3/4A protease enzyme from Bioenza (Mountain View, Calif.) and 1.13× 5-FAM/QXL™ 520 FRET peptide substrate from Anaspec (San Jose, Calif.) were prepared in 50 mM HEPES, pH 7.8, 100 mM NaCl, 5 mM DTT and 20% glycerol. 5 μL of each enzyme were pre-incubated in a Corning (#3573) 384-well, black, non-treated microtiter plate (Corning, N.Y.) for 30 min at 25° C. with a 0.5 μL volume of 50% DMSO and serially diluted compounds prepared in 50% DMSO. Protease reactions were started with the addition of 45 μL of the FRET substrate and monitored for 120 minutes at λex487/λem514 through Quad^4 monochromoters in a Synergy^4 plate reader from BioTek (Winooski, Vt.). At the conclusion of each assay, progress curves from each well were examined for linear reaction kinetics and fit statistics (R^2, absolute sum of squares). Initial velocity (0 minutes to 30+ minutes) from each reaction was determined from the slope of a plot of relative fluorescence units vs time (minutes) and then plotted against inhibitor concentration to estimate IC50 from log[Inhibitor] vs Response, Variable Slope model in GraphPad Prism from GraphPad Software (San Diego, Calif.).
The compound numbers correspond to the compound numbers in Table 3. […] ;

[2] = molecular target: T2, wild type HCV NS3/4A 1b protease enzyme (Hepatitis C virus genotype 1b, UniProt P26663); assay: biochemical; assay type: biochemical; settings: read-out: Inhibition, WT; WT enzyme, FRET assay
T2 construct: 10× stocks of NS3/4A protease enzyme from Bioenza (Mountain View, Calif.); purchased Bioenza (Mountain View, Calif.)
Protocol: as §1
(§2) Protease reactions were started with the addition of 45 μL of the FRET substrate and monitored for 120 minutes at λex487/λem514 through Quad^4 monochromoters in a Synergy^4 plate reader from BioTek (Winooski, Vt.). At the conclusion of each assay, progress curves from each well were examined for linear reaction kinetics and fit statistics (R^2, absolute sum of squares).
(§3) The compound numbers correspond to the compound numbers in Table 3.

[3] = molecular target: T3, D168A mutant of the HCV NS3/4A 1b protease enzyme (Hepatitis C virus genotype 1b, UniProt P26663, D1194A); assay: HCV Protease FRET Assay (IC50), D168A mutant; assay type: biochemical; settings: read-out: Inhibition, HCV D168A; D168A enzyme, FRET assay
T3 construct: 10× stocks of NS3/4A protease enzyme from Bioenza (Mountain View, Calif.); purchased Bioenza (Mountain View, Calif.)
Protocol: as §1, §2, §3

[4] = system: cell line ET (luc-ubi-neo/ET), human Huh7 hepatoma cell line; assay: Method A: cytotoxicity in ET replicon cells (CytoTox-1); assay type: cell-based; settings: concentration decreasing cell viability by 50%, 72 hr
Protocol: The compounds were assayed to evaluate the antiviral activity and cytotoxicity of compounds in vitro using HCV RNA replicons. This assay used the cell line ET (luc-ubi-neo/ET), which is a human Huh7 hepatoma cell line that contains an HCV RNA replicon with a stable luciferase (Luc) reporter and three cell culture-adaptive mutations. […]
The ET cell line was grown in Dulbecco's modified essential media (DMEM), 10% fetal bovine serum (FBS), 1% penicillin-streptomycin (pen-strep), 1% glutamine, 250 μg/ml G418 in a 5% CO2 incubator at 37° C. All cell culture reagents were obtained from Mediatech (Manassas, Va.). Cells were trypsinized (1% trypsin:EDTA) and plated out at 5×10^3 cells/well in white 96-well assay plates (Costar) dedicated to cell number (cytotoxicity) or antiviral activity assessments. Drugs were added at six 3-fold concentrations each and the assay was run in DMEM, 5% FBS, 1% pen-strep, 1% glutamine. Human interferon alpha-2b (PBL Biolabs, New Brunswick, N.J.) was included in each run as a positive control compound. Cells were processed 72 hr post drug addition when the cells are still subconfluent. Antiviral activity was measured by analyzing replicon-derived luciferase activity using the Steady-Glo Luciferase Assay System (Promega, Madison, Wis.) according to manufacturer's instruction. The number of cells in each well was determined by CytoTox-1 reagent (Promega). […].

[5] = system: HCV RNA replicon in cell line ET (luc-ubi-neo/ET), human Huh7 hepatoma; assay: Method A: HCV RNA replicon antiviral assay (luciferase, ET cell line); assay type: cell-based, Hepatitis C virus; settings: Hepatitis C virus, Huh-7
In short: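 ET replicon cells (Huh7 carrying luciferase-reporter HCV replicon) plated at 5×10^3 cells/well and exposed 72 hr to six 3-fold drug concentrations in DMEM/5% FBS. Replicon luciferase gave EC50/EC90; CytoTox-1 cell counts gave IC50 (viability); […]. Interferon alpha-2b served as positive control.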

[6] = molecular target: T3, D168A mutant of the HCV NS3/4A 1b protease enzyme; assay: HCV Protease FRET Assay (IC50_APP), D168A mutant; assay type: biochemical; settings: apparent IC50, D168A mutant; read-out: IC50_APP, HCV D168A
[7] = molecular target: T2, wild type HCV NS3/4A 1b protease enzyme; assay: HCV Protease FRET Assay (IC50_APP), wild type; assay type: biochemical; settings: read-out: IC50_APP, WT; apparent IC50, wild type NS3/4A 1b
[8] = molecular target: T1, A156T mutant of the HCV NS3/4A 1b protease enzyme; assay: HCV Protease FRET Assay (IC50_APP), A156T mutant; assay type: biochemical; settings: apparent IC50, A156T mutant; read-out: IC50_APP, HCV A156T
[9] = Replicon, assay of Example 22, 72 hr, read-out: Inhibition, Replicon
[10] = assay described in Example 22, read-out: Replicon (IC50)

Row | Compound | IC50 [1] [nM] | IC50 [2] [nM] | IC50 [3] [nM] | Inhibition, Cytotoxicity [4] | IC50 [5, 9] [nM] | IC50 [6] [nM] | IC50 [7] [nM] | IC90 ([5]; assay described in Example 22) [nM] | IC50 [5, 10] [nM] | IC50 [8] [nM]
1 | C=C[C@@H]1C[C@]1(NC(=O)[C@@H]1C[C@@H](Oc2cc(-c3ccccc3)nc3cc(OC)ccc23)CN1C(=O)[C@H](CNC(=O)C(Cl)c1ccccc1)NC(=O)OC(C)(C)C)C(=O)NS(=O)(=O)c1ccccc1 (stereo partly drawn) [Compound I-23, tert-butyl(S)-3-(2-chloro-2-phenylacetamido)-1-((2S,4R)-4-(7-methoxy-2-phenylquinolin-4-yloxy)-2-((1R,2S)-1-(phenylsulfonylcarbamoyl)-2-vinylcyclopropylcarbamoyl)pyrrolidin-1-yl)-1-oxopropan-2-ylcarbamate] | 1000 to 10000 | < 10 | 100 to 1000 | D (IC50>1000 nM and <10,000 nM) | 100 to 1000 |  |  |  |  | 
2 | C=CC(=O)N1CCC(NC(=O)OC(C)(C)C)(C(=O)N2C[C@H](Oc3cc(-c4ccccc4)nc4cc(OC)ccc34)C[C@H]2C(=O)N[C@]2(C(=O)NS(=O)(=O)c3ccccc3)C[C@H]2C=C)CC1 [Compound I-26, tert-butyl-1-acryloyl-4-((2S,4R)-4-(7-methoxy-2-phenylquinolin-4-yloxy)-2-((1R,2S)-1-(phenylsulfonylcarbamoyl)-2-vinylcyclopropylcarbamoyl)pyrrolidine-1-carbonyl)piperidin-4-ylcarbamate] |  | < 10 | 100 to 1000 | E (IC50≧10,000 nM) | > 10000 |  |  |  |  | 
3 | C=C[C@@H]1C[C@]1(NC(=O)[C@@H]1C[C@@H](Oc2cc(-c3ccccc3)nc3cc(OC)ccc23)CN1C(=O)CNC(=O)C#CC)C(=O)NS(=O)(=O)C1CC1 [Compound I-48, (2S,4R)-1-(2-but-2-ynamidoacetyl)-N-((1R,2S)-1-(cyclopropylsulfonylcarbamoyl)-2-vinylcyclopropyl)-4-(7-methoxy-2-phenylquinolin-4-yloxy)pyrrolidine-2-carboxamide] |  | 10 to 100 | 1000 to 10000 | E (IC50≧10,000 nM) | 1000 to 10000 |  |  |  |  | 
4 | C=C[C@@H]1C[C@]1(NC(=O)[C@@H]1C[C@@H](Oc2cc(-c3ccccc3)nc3cc(OC)ccc23)CN1C(=O)CNC(=O)/C=C/C)C(=O)NS(=O)(=O)c1ccccc1 [Compound I-47, (2S,4R)-1-(2-(E)-but-2-enamidoacetyl)-4-(7-methoxy-2-phenylquinolin-4-yloxy)-N-((1R,2S)-1-(phenylsulfonylcarbamoyl)-2-vinylcyclopropyl)pyrrolidine-2-carboxamide] |  | 10 to 100 | 1000 to 10000 | E (IC50≧10,000 nM) | 1000 to 10000 |  |  |  |  | 
5 | C#CCN(C)C(=O)CCCC(=O)N[C@@H](CNC(=O)C=C)C(=O)N1C[C@H](Oc2cc(-c3ccccc3)nc3cc(OC)ccc23)C[C@H]1C(=O)N[C@]1(C(=O)NS(=O)(=O)c2ccccc2)C[C@H]1C=C [Compound I-42] | 100 to 1000 | < 10 |  | E (IC50≧10,000 nM) | > 10000 | 100 to 1000 | 10 to 100 | > 10000 | > 10000 | 
6 | C=C[C@@H]1C[C@]1(NC(=O)[C@@H]1C[C@@H](Oc2cc(-c3ccccc3)nc3cc(OC)ccc23)CN1C(=O)[C@H](CN(C)C(=O)/C=C/CN(C)C)NC(=O)OC(C)(C)C)C(=O)NS(=O)(=O)c1ccccc1 [Compound I-30, tert-butyl-(S)-3-((E)-4-(dimethylamino)-N-methylbut-2-enamido)-1-((2S,4R)-4-(7-methoxy-2-phenylquinolin-4-yloxy)-2-((1R,2S)-1-(phenylsulfonylcarbamoyl)-2-vinylcyclopropylcarbamoyl)pyrrolidin-1-yl)-1-oxopropan-2-ylcarbamate] |  | < 10 | 100 to 1000 | E (IC50≧10,000 nM) | 10 to 100 | 1000 to 10000 | 10 to 100 | 100 to 1000 | 10 to 100 | 1000 to 10000
7 | C=C[C@@H]1C[C@]1(NC(=O)[C@@H]1C[C@@H](Oc2cc(-c3ccccc3)nc3cc(OC)ccc23)CN1C(=O)[C@H](CN(C)C(=O)C(=C)C)NC(=O)OC(C)(C)C)C(=O)NS(=O)(=O)c1ccccc1 [Compound I-32, tert-butyl-(S)-1-((2S,4R)-4-(7-methoxy-2-phenylquinolin-4-yloxy)-2-((1R,2S)-1-(phenylsulfonylcarbamoyl)-2-vinylcyclopropylcarbamoyl)pyrrolidin-1-yl)-3-(N-methylmethacrylamido)-1-oxopropan-2-ylcarbamate] |  | < 10 | 1000 to 10000 | E (IC50≧10,000 nM) | 100 to 1000 |  |  |  |  | 
8 | C=CC(=O)NC[C@H](NC(=O)OC(C)(C)C)C(=O)N1C[C@H](Oc2cc(-c3ccccc3)nc3cc(OC)ccc23)C[C@H]1C(=O)N[C@]1(C(=O)O)C[C@H]1C=C [Compound I-41, (1R,2S)-1-((2S,4R)-1-((S)-3-acrylamido-2-(tert-butoxycarbonylamino)propanoyl)-4-(7-methoxy-2-phenylquinolin-4-yloxy)pyrrolidine-2-carboxamido)-2-vinylcyclopropanecarboxylic acid] |  | 10 to 100 | 1000 to 10000 | E (IC50≧10,000 nM) | > 10000 |  |  |  |  | 
9 | C=C[C@@H]1C[C@]1(NC(=O)[C@@H]1C[C@@H](Oc2cc(-c3ccccc3)nc3cc(OC)ccc23)CN1C(=O)C1(NC(=O)OC(C)(C)C)CCN(C(=O)CCl)CC1)C(=O)NS(=O)(=O)c1ccccc1 [Compound I-25, tert-butyl-1-(2-chloroacetyl)-4-((2S,4R)-4-(7-methoxy-2-phenylquinolin-4-yloxy)-2-((1R,2S)-1-(phenylsulfonylcarbamoyl)-2-vinylcyclopropylcarbamoyl)pyrrolidine-1-carbonyl)piperidin-4-ylcarbamate] |  | < 10 | 10 to 100 | C (IC50>100 nM and ≦1000 nM) | > 10000 |  |  |  |  | 

Source: US8309685B2 (Celgene Avilomics Research, Inc., priority 2007, dated 2012)
